These results are taken from patent US8741945B2, “Compounds” (Novacta Biosystems Limited, priority 2009, dated 2014).

In general, MIC refers to the lowest concentration found to suppress growth. Lower therefore signals a more susceptible organism.

For data set [1], the system named is Clostridium difficile strains. The experiment in a line: Susceptibility testing (MIC) by two-fold serial agar dilution, Wilkins-Chalgren Anaerobe agar, anaerobic. Format: cell-based. How it is done: Susceptibility testing for Clostridium difficile strains was performed by two-fold serial antibiotic dilutions in Wilkins-Chalgren Anaerobe agar under anaerobic conditions. Vancomycin was included as a comparator drug. C. difficile cultures were inoculated onto pre-reduced Braziers (C.C.E.Y.) agar plates and grown at 37° C. for 48 hours under anaerobic conditions. Two to three colonies of the 48 hours cultures were inoculated into 5 ml of pre-reduced Schaedlers Broth and grown at 37° C. for 24 hours under anaerobic conditions. This culture was diluted with pre-reduced 0.9% NaCl to achieve the turbidity of the 0.5 McFarland standard and applied to the drug containing plates at a final inoculum of 10^5 cfu/spot. Drug-free growth control plates were included. The plates were incubated in the anaerobic chamber at 37° C. for 48 hours and examined for growth.
On the technique in general: Agar dilution tests growth on a series of plates holding different concentrations.

Data set [2] is described as follows: Stability to enzymatic digestion in simulated intestinal fluid (SIF). The format is in vitro ADME. The settings on record: 37° C., HPLC quantification (FIG. 1). On the procedure:
Nisin and the compound of Example 1 were tested for their susceptibility towards enzymatic digestion in the intestine using a simulated intestinal fluid (SIF). The SIF was based on the standard USP solutions for simulated intestinal fluids and its activity was confirmed against Bovine Serum Albumin (Hilger et al, Clin. Exp. Immunol. 2001, 123, 387-94). The compounds were incubated in SIF at 37° C. and their concentrations quantified by analytical HPLC (UV detection at 210 nm using the conditions outline in Table 1).

The subject of data set [3] is C. difficile strain 4013. As to the kind of experiment: Hamster model of C. difficile associated cecitis (clindamycin induced). Format: in vivo. The settings on record: three times daily at 10 mg/kg/day, 5-day dosing period, groups of 6. On the procedure: The in vivo efficacy of the compounds of the invention in the treatment of C. difficile infections was evaluated in the standard animal model for CDAD, clindamycin induced cecitis in the hamster.
Groups of 6 animals were dosed with approximately 10^7 cells of C. difficile strain 4013 and 24 hours later with a subcutaneous dose of 10 mg/kg clindamycin phosphate. After a further 24 hours, the groups were then treated either with vehicle, vancomycin or with the compound of Example 1 three times daily at 10 mg/kg/day.

Data set [4] is described as follows: 7-day toxicity experiment in a rat model. The format is in vivo. On the procedure: The compound of Example 1 was tested in a 7-day toxicity experiment in a rat model. One study used 50 mg/kg/day of material administered intravenously for 7 days. The other study used 200 mg/kg/day of material administered orally for 7 days.
Data set [5] can be described thus: Tolerability in the Syrian hamster. Format: in vivo. The settings on record: 50 mg/kg/day orally.
[6] abbreviates: 50 mg/kg/day intravenously for 7 days.
The mark [7] stands for this setting: 200 mg/kg/day orally for 7 days.

Values joined by “and” are separate entries in the source; they are usually repeats but may differ in a detail not shown here. Identical values can stand only once.

With “Deoxyactagardine B (3-amino-1-propylamide monocarboxamide) [Example 5]”, the MIC in data set [1] (C. diff strain 027SM) is 2, 2 μg/ml; in data set [1] (C. diff strain 630, listed as Eg 5), 1, 1 μg/ml and 2, 2 μg/ml; in data set [1] (C. diff strain 19126, listed as Eg 5) it was 2, 2 μg/ml and 1, 1 μg/ml; in data set [1] (C. diff strain 37779, listed as Eg 5) it was 1, 1 μg/ml and 2, 2 μg/ml; in data set [1] (C. diff strain B32) it was 2, 2 μg/ml; in data set [1] (C. diff strain E16, listed as Eg 5), 1 µg/mL and 2 µg/mL. Besides, the MIC is 2, 2 μg/ml in data set [1] (C. diff strain E101); 2, 2 μg/ml in data set [1] (C. diff strain P24); 2, 2 μg/ml in data set [1] (C. diff strain P62).

As to “Deoxyactagardine B (12-amino-1-dodecylamide monocarboxamide) [Example 8]”, the MIC was 1, 1 μg/ml in data set [1] (C. diff strain 027Can); 2, 2 μg/ml in data set [1] (C. diff strain 027SM); 0.5, 0.5 μg/ml and 1, 1 μg/ml in data set [1] (C. diff strain 630, listed as Eg8); 1, 1 μg/ml and 2, 2 μg/ml in data set [1] (C. diff strain 19126, listed as Eg8); 1, 1 μg/ml and 1 μg/ml and 2 μg/ml in data set [1] (C. diff strain 37779, listed as Eg8); 2 µg/mL and 1 µg/mL in data set [1] (C. diff strain B32, listed as Eg8). In addition, the MIC in data set [1] (C. diff strain E16) was 2, 2 μg/ml; in data set [1] (C. diff strain E101), 2, 2 μg/ml; in data set [1] (C. diff strain P24, listed as Eg8), 2 µg/mL and 1 µg/mL; in data set [1] (C. diff strain P62) it was 2, 2 μg/ml.

As for `CCC(C)[C@@H]1NC(=O)[C@@H]2NC(=O)[C@H](CC(C)C)NC(=O)[C@H](NC(=O)C3CSC[C@H](N)C(=O)N[C@@H](CO)C(=O)NCC(=O)N[C@@H](Cc4c[nH]c5ccccc45)C(=O)N[C@@H](C(C)C)C(=O)N3)[C@H](C)SC[C@H](NC(=O)[C@H](CCC(=O)O)NC1=O)C(=O)NCC(=O)N[C@@H]1C(=O)N[C@@H](CC(C)C)C(=O)N[C@@H](C(C)C)C(=O)N[C@@H](CS[C@H]2C)C(=O)N[C@@H](C)C(=O)N[C@H](C(=O)NCCCCCCCN)CS[C@H]1C` (some centres unmarked) [Example 1, Deoxyactagardine B (7-amino-1-heptylamide monocarboxamide)], the MIC is 0.5, 0.5 μg/ml and 1, 1 μg/ml and 1 μg/ml and 0.5 μg/ml in data set [1] (C. diff strain 027Can, listed as Eg 1); 1, 1 μg/ml in data set [1] (C. diff strain 027SM); 0.5, 0.5 μg/ml and 0.5 μg/ml and 1 μg/ml and 1, 1 μg/ml in data set [1] (C. diff strain 630, listed as Eg 1); 1, 1 μg/ml and 0.5 μg/ml and 1 μg/ml in data set [1] (C. diff strain 19126, listed as Eg 1); 1, 1 μg/ml and 1 μg/ml and 0.5 μg/ml in data set [1] (C. diff strain 37779, listed as Eg 1); 1, 1 μg/ml in data set [1] (C. diff strain B32). Also, the MIC in data set [1] (C. diff strain E16, listed as Eg 1) is 1 µg/mL and 2 µg/mL; in data set [1] (C. diff strain E101), 1, 1 μg/ml; in data set [1] (C. diff strain P24), 1, 1 μg/ml; in data set [1] (C. diff strain P62, listed as Eg 1), 2 µg/mL and 1 µg/mL. The “activity (MIC)” value in data set [1] (against many common strains of C. difficile) was not above 1 µg/mL. The “stability in SIF” value in data set [2] is on record as “essentially stable”. Besides, in data set [3], the survival result is reported as “survived for the duration of the entire 5-day dosing period”. For the same compound, the necropsy result in data set [4] (setting [6]) and in data set [4] (setting [7]) was “no organ damage” in each case. In addition, the toxicological effects result in data set [4] (setting [6]) and in data set [4] (setting [7]) was “No significant toxicological effects” each time. Besides, in data set [5], the tolerability entry was “tolerated without obvious signs of toxicity”.

As to `CN[C@H](CC(C)C)C(=O)N[C@H]1C(=O)N[C@@H](CC(N)=O)C(=O)N[C@H]2C(=O)N[C@H]3C(=O)N[C@H](C(=O)N[C@H](C(=O)O)c4cc(O)cc(O)c4-c4cc3ccc4O)[C@H](O)c3ccc(c(Cl)c3)Oc3cc2cc(c3O[C@@H]2O[C@H](CO)[C@@H](O)[C@H](O)[C@H]2O[C@H]2C[C@](C)(N)[C@H](O)[C@H](C)O2)Oc2ccc(cc2Cl)[C@H]1O` [vancomycin, reference compound], in data set [3], the survival entry was “survived for the duration of the entire 5-day dosing period”.
